{
  "source": "patent US20130224285A1",
  "about": "“ESTROGEN RECEPTOR ALPHA POLYPEPTIDE SEQUENCE, DIAGNOSTIC AND THERAPEUTIC APPLICATIONS THEREOF” (Universite Libre de Buxelles, priority 2010, published 2013)",
  "key": {"MCF-7 cells": {"test_system": "MCF-7 cells", "test": "Immunoprecipitation (G20 antibody) and Western blot of the endogenous ER-alpha degradation peptide in conditioned medium of treated MCF-7 cells", "format": "cell-based, human", "settings": "conditioned medium of MCF-7 cells; estradiol 10^-8M, diethylstibestrol 10^-8M, 4-OHTamoxifen 10^-7M, Fulvestrant 10^-7M; vs control; FIG. 3; preliminary", "description": "MCF-7 breast cancer cell line was cultured for 48 hours in EMEM without Phenol-red, comprising 2 mM glutamine, 100 U/ml penicilline and 100 μg/ml streptomycine, supplemented with 10% steroid-free fetal calf serum. After three washing steps with serum/antibiotic-free EMEM without Phenol-red, the cells were cultured for 4 hours in the presence or absence of the E2 ligand dissolved in serum/antibiotic-free EMEM without Phenol-red, containing only 2 mM glutamine.\nAfter preclearing with 100 μl (50%) immobilised protein G on agarose beads (UltraLink®, Pierce) (2 hours at 4° C.) conditioned media (or EMEM for the negative control) were incubated with antibody G20 (Santa-Cruz) (except for the negative control) overnight at 4° C. After antibody capturing in 100 μl (50%) immobolised proteine G, the resin is heated to 85° C. for 5 minutes in Laemmli without colorant. The protein samples are subsequently separated on a Tris-Tricine 10% (Invitrogen) gel and the peptides are transferred to nitro-cellulose membranes (15% methanol; semi-dry transfer (BioRad apparatus; 24 V; 0.15 mA, 15 minutes). After blocking with 5% milk for 30 minutes, the proteins are detected with chemiluminescence (primary antibody: G20 (1/500; 2 hours); secondary antibody: anti-rabbit (Pierce; 1/6000; 1 hour). […]"}, "proteasome": {"test_system": "proteasome", "settings": "inhibition of the proteasome; Nawaz et al. 1999 and others; cited from earlier work"}, "ER-alpha": {"test_system": "ER-alpha", "test": "ERE-driven luciferase reporter assay in MVLN cells", "format": "cell-based, human", "settings": "10^-5M, 6 hours, serum free, FIG. 6, preliminary", "text": "In order to provide a proof of principle that secretion of the ER-alpha breakdown product/peptide described here could relay or amplify the effect of estradiol toward ER-alpha transcriptional activity, we have treated MVLN cells (MCF-7 stably transfected with an ERE-driven luciferase reporter gene; Pons et al., Biotechniques 1990; 9:450-459) with a synthetic peptide corresponding to this sequence (SEQ ID NO:2) and containing its post-translational modifications in serum free condition (FIG. 6).\nMVLN cells were cultured for 48 hours in EMEM containing 10% of charcoal-stripped serum prior treatment with E2 at 10^−10 M or ER-alpha-17p or SEQ ID NO:2 both at 10^−5M for. After 6 h treatment in serum free condition, cells were washed 2 times with PBS. Luciferase activity was then measured in cell lysates by luminometry using Luciferase Assay System (Promega) according to manufacturer instructions."}, "[1]": {"test_system": "MCF-7 breast cancer cell line", "test": "MCF-7 cell growth with synthetic peptides, crystal violet staining", "format": "cell-based, human", "settings": "10^-5M, 72 hours, EMEM with 10% charcoal-stripped serum, vs control, FIG. 4", "description": "In order to provide a proof of principle that secretion of the ER-alpha breakdown product/peptide described here could relay or amplify the effect of estradiol toward the proliferation of ER-alpha-positive cells, we have treated MCF-7 cells with a synthetic peptide corresponding to this sequence (SEQ ID NO:2) and containing its post-translational modifications (FIG. 4). ER-alpha-positive MCF-7 breast cancer cell line were seeded in 96-well plates (3000 cells/well). Cells were then treated with or without (control) ER-alpha-17p or the SEQ ID NO:2 peptide both at 10^−5M for 72 hours. Cell growth was measured by crystal violet staining. Briefly, cell cultures were gently washed once with PBS, fixed with 1% glutaraldehyde in PBS (15 min, room temperature) and stained with 0.1% crystal violet (w/v in ddH2O; 30 min, room temperature). After removal of excess dye by rinsing under gently running tap water, cell-bound crystal violet was extracted with 1% Triton X-100 (v/v in ddH2O; room temperature, under agitation) and measured by spectrometry at 550 nm."}, "[2]": {"test_system": "breast cancer cell lines that are ER-alpha-positive", "settings": "Gallo et al. 2007, 2008; cited from earlier work"}, "[3]": {"molecular_target": "T1, purified recombinant human ER-alpha (Homo sapiens, UniProt P03372)", "T1 sequence (P03372 1-595)": "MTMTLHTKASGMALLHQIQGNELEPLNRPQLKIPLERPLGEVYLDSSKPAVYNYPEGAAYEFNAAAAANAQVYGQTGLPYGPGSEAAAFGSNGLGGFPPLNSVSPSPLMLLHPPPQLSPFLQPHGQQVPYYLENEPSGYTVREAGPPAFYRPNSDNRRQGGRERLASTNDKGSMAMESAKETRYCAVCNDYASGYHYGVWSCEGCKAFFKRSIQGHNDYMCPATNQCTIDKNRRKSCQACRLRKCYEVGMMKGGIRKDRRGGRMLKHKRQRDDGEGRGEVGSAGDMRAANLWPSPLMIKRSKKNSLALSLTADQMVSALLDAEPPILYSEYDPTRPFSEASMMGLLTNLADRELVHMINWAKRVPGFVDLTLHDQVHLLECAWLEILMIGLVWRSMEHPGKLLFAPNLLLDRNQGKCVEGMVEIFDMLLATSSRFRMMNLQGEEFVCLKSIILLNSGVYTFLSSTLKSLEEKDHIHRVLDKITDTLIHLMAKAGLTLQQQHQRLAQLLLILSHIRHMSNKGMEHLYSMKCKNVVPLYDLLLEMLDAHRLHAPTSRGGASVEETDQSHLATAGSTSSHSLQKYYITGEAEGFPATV", "settings": "Gallo et al. 2007; cited from earlier work"}, "ER-alpha receptor": {"test_system": "ER-alpha receptor", "settings": "competition with synthetic peptide; Gallo et al. 2007; cited from earlier work"}},
  "note": "Residues, ends and D or L forms follow the SMILES beside them. No end group written: not given here. *: point of attachment. Cbz = O=C(OCc1ccccc1)*",
  "data": [
    {"compound": "CC/C(=C(\\c1ccc(O)cc1)c1ccc(OCCN(C)C)cc1)c1ccccc1", "note": "[4-OHTamoxifen]", "values": [
      {"measurement": "production of the endogenous ER-alpha degradation product/peptide", "setting": "MCF-7 cells", "result": "decrease its production"}
    ]},
    {"compound": "C[C@]12CC[C@@H]3c4ccc(O)cc4C[C@@H](CCCCCCCCC[S+]([O-])CCCC(F)(F)C(F)(F)F)[C@H]3[C@@H]1CC[C@@H]2O", "note": "(some centres unmarked) [Fulvestrant]", "values": [
      {"measurement": "production of the endogenous ER-alpha degradation product/peptide", "setting": "MCF-7 cells", "result": "decrease its production"}
    ]},
    {"compound": "CC(C)C[C@@H](C=O)NC(=O)[C@H](CC(C)C)NC(=O)[C@H](CC(C)C)NC(=O)OCc1ccccc1", "note": "[MG-132] (Cbz-Leu-Leu-Leu-aldehyde)", "values": [
      {"measurement": "ER-alpha-dependent transcription", "setting": "proteasome", "result": "diminishes ER-alpha-dependent transcription"}
    ]},
    {"compound": "CC(=O)N[C@@H](CSC(=O)[C@]1([C@@H](O)C(C)C)NC(=O)[C@H](C)[C@@H]1O)C(=O)O", "note": "[lactacystine]", "values": [
      {"measurement": "ER-alpha-dependent transcription", "setting": "proteasome", "result": "diminishes ER-alpha-dependent transcription"}
    ]},
    {"compound": "K268RQRDDGEGRGEVGSAGDMRAANLWPSPLMIKRSKKNSLALSLT311 (KRQRDDGEGRGEVGSAGDMRAANLWPSPLMIKRSKKNSLALSLT; listed as Homo Sapiens) [SEQ ID NO:2, endogenous 44-residue ER-alpha degradation peptide K268-T311]", "values": [
      {"measurement": "ER-alpha transcriptional activity (luciferase)", "setting": "ER-alpha", "result": "significant increase of the ER-alpha transcriptional activity higher than the control ER-alpha-17p peptide"},
      {"measurement": "MCF-7 cell proliferation (growth)", "setting": "[1]; listed as ER-alpha-44p", "result": "capable of inducing proliferation of cancer cells"},
      {"measurement": "MCF-7 cell proliferation (growth)", "setting": "[1]; listed as SED ID NO:2", "result": "significant increase of their proliferation higher that the control ER-alpha-17p peptide"}
    ]},
    {"compound": "P295LMIKRSKK303NSLALSLT311 (PLMIKRSKK(Me)NSLALSLT; listed as Homo Sapiens) [ER-alpha-17p]", "values": [
      {"measurement": "proliferation of ER-alpha-positive breast cancer cell lines", "setting": "[2]", "result": "increased proliferation"},
      {"measurement": "binding to purified recombinant human ER-alpha", "setting": "[3]", "result": "binds to purified recombinant human ER-alpha"},
      {"measurement": "transcriptional activity of the ER-alpha receptor", "setting": "ER-alpha receptor", "result": "increased transcriptional activity"},
      {"measurement": "MCF-7 cell proliferation (growth)", "setting": "[1]", "result": "capable of inducing proliferation of cancer cells"}
    ]}
  ]
}
